Reference: PMC7391726, “Fatty acid mimetic PBI-4547 restores metabolic homeostasis via GPR84 in mice with non-alcoholic fatty liver disease” (Scientific Reports, 2020)

Key:
GPR84 = biological target: T1, GPR84 (Homo sapiens, UniProt Q9NQS5); assay: BRET Gαi2 activation biosensor in HEK293 cells transfected with GPR84; assay type: cell-based
T1 construct: expressed in transfected cells; host or cells: HEK293
Source text: PBI-4547 (2-[3,5-dipentylphenyl]acetate sodium salt) is a medium-chain FA (MCFA) mimetic (Fig. 1A). Accordingly, we examined the signaling properties of PBI-4547 on receptors known to be activated by MCFAs. […] This biosensor consisted of an Rluc8-tagged Gαi2 subunit, a GFP10-tagged Gγ2 subunit, and an untagged Gβ1. Agonist stimulation and receptor activation triggers a physical separation between the Gα-Rluc8 donor and the GFP10-Gγ2 acceptor, resulting in a decrease in BRET signal, whose amplitude is correlated to ligand efficacy. […] (A) Chemical structure of PBI-4547. (B) Gi pathway activation was monitored in HEK293 cells transfected with GPR84 and the Gαi2 activation biosensor. […] (C) β-arrestin 2 recruitment to activated GPR120 receptor was monitored in HEK293 cells transfected with RLuc8-β-arrestin 2 and GPR120-GFP10. (D) Cells transfected with GPR40 and Gαq or Gαi2 activation biosensor were exposed to increasing concentrations of PBI-4547 or to 500 µM of sodium decanoate, and BRET variation compared with vehicle was measured. Cells were exposed to increasing concentrations of PBI-4547 or to 100 µM of GW9508, and BRET variation compared with vehicle was measured. (E) LanthaScreen TR-FRET competitive binding assay of PBI-4547 and PPAR control agonists to the LBD of PPARα, PPARδ and PPARγ. (F) Cell-based GAL4 transactivation assay in HEK293 cells transfected with the LBD of PPARα, PPARδ or PPARγ, and treated with increasing concentrations of PBI-4547 or PPAR control agonists. Data in (B–D) are expressed as means ± SEM of 4–5 experiments; data in (E,F) are from a representative experiment from a total of 3 to 4 independent experiments. BRET measurements in transiently transfected HEK293 cells were performed as previously described. Ligands were incubated with cells at room temperature for 10 min (G protein biosensors) or 25 min (β-arrestin/GPR120) before collecting BRET[2] readings between Rluc8 and GFP10.

BDL rat = assay: Bile duct ligation (BDL)-induced liver fibrosis; assay type: in vivo
Source text: Since fibrosis contributes directly to the progression from NAFLD to NASH, we next evaluated the effect of PBI-4547 pro-fibrotic gene expression. […] Pro-inflammatory genes were not modulated by treatment with PBI-4547. […] As liver fibrosis was relatively mild in HFD-fed mice, we performed separate studies to evaluate the antifibrotic effect of PBI-4547, in rodent models of carbon tetrachloride (CCl4)- and bile duct ligation (BDL)-induced liver fibrosis.

PPARγ = biological target: T2, PPARγ (Homo sapiens, UniProt P37231); assay: Cell-based GAL4 transactivation assay in HEK293 cells, PPARγ LBD
T2 construct: PPARγ (S176–Y477); expressed in transfected cells; host or cells: HEK293
T2 sequence (P37231 176-477 isoform P37231-2): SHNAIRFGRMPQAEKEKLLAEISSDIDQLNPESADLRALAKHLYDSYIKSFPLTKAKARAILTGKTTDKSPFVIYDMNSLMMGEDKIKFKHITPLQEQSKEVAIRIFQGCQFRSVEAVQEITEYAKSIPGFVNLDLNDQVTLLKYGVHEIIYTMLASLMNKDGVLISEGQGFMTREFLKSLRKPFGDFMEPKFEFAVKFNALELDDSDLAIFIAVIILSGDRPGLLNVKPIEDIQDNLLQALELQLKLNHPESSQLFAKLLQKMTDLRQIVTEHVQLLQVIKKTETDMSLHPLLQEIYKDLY
Source text: (§1) To determine the transcriptional activity of PBI-4547, a cell-based GAL4 transactivation assay in HEK293 cells transfected with either PPARα, PPARδ, or PPARγ LBD was used. […] However, PBI-4547 only partially activated PPARγ transcriptional activity, with a relative maximal efficacy of 38% of the control agonist rosiglitazone.
(§2) Generation of the Gαi2, Gαq, and GPR40/β-arrestin-2 BRET biosensors have been described previously. A plasmid encoding the human GPR120-L (long isoform) cDNA was obtained from R&D Systems. GPR120-S (short isoform) was generated by replacing the BglII-BsgI fragment from GPR120-L by a gBlock gene fragment (Integrated DNA Technologies, Coralville, IA) lacking the DNA sequence corresponding to the extra 16 amino acids found in the third intracellular loop of the long form. The GPR120-GFP10 construct was generated by inserting PCR-amplified GPR120-S (without its stop codon) in place of GPR40 in the GPR40-GFP10 plasmid. […]
(§3) HEK293 cells were co-transfected with pGL4.35[luc2P/9XGAL4UAS/Hygro] and GAL4-PPAR-Rluc plasmids, and after 24 h of incubation were treated with compounds for 24 h. Luciferase activity was determined with the Dual Glo luciferase assay (Promega). Firefly luminescence was normalized to the constitutively expressed Renilla luminescence, and results expressed as fold induction of vehicle control.

PPARα = biological target: T3, PPARα (Homo sapiens, UniProt Q07869); assay: Cell-based GAL4 transactivation assay in HEK293 cells, PPARα LBD; settings: HEK293, 24 h; read-out: EC50, PPARα transcriptional activity
T3 construct: human PPARα (S167–Y468); expressed in transfected cells; host or cells: HEK293
T3 sequence (Q07869 167-468): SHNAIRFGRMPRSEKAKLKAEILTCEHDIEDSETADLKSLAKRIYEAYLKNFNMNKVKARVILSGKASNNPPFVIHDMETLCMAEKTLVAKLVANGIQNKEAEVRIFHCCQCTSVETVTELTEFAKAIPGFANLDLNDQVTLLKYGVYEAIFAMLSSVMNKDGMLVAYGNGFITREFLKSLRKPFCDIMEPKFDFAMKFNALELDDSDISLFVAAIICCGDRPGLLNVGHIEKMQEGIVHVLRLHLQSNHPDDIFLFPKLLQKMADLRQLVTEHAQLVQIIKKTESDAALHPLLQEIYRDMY
Source text: as §1, §2, §3

T1 sequence (Q9NQS5 whole entry, species assumed): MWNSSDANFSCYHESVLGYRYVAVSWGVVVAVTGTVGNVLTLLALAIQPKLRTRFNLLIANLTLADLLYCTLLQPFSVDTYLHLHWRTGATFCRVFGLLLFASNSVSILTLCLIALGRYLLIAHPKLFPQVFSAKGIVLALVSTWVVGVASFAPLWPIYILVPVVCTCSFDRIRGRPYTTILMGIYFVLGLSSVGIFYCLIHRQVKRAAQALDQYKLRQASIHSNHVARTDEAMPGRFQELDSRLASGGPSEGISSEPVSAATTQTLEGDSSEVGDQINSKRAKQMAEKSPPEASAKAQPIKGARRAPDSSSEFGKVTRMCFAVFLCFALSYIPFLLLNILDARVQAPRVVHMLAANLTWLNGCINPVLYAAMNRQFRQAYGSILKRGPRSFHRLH

IC50 (GPR84; co-treated with 125 mM sodium decanoate and increasing concentrations of PBI-4547, read-out: IC50, inhibition of GPR84/Gαi2 activation): 17 µM | EC50 (PPARγ; HEK293, 24 h, read-out: EC50, PPARγ transcriptional activity): 3.6 µM | Emax (PPARγ; HEK293, of the control agonist rosiglitazone, read-out: relative maximal efficacy, PPARγ transcriptional activity): 38% | EC50 (PPARα): 42 µM
Structure (SMILES): CCCCCc1cc(CCCCC)cc(CC(=O)[O-])c1.[Na+] [PBI-4547, 2-[3,5-dipentylphenyl]acetate sodium salt]
GPR84/Gαi2-mediated BRET signal modulation (agonist mode) (GPR84; compound alone vs vehicle): did not lead to GPR84/Gαi2-mediated BRET signal modulation | liver collagen deposition (BDL rat): significantly decreased
